Experimental data as given in patent US20230124087A1, “KV3 ENHANCERS FOR THE TREATMENT OF COGNITIVE DISORDERS” (Hoffmann-La Roche Inc., priority 2020, published 2023).
Where two headings read alike, the source gives them in different places.

Molecular target: T1, Kv3.1 (Homo sapiens, UniProt P48547)
T1 construct: expressed in transfected cells
T1 sequence (P48547 1-511): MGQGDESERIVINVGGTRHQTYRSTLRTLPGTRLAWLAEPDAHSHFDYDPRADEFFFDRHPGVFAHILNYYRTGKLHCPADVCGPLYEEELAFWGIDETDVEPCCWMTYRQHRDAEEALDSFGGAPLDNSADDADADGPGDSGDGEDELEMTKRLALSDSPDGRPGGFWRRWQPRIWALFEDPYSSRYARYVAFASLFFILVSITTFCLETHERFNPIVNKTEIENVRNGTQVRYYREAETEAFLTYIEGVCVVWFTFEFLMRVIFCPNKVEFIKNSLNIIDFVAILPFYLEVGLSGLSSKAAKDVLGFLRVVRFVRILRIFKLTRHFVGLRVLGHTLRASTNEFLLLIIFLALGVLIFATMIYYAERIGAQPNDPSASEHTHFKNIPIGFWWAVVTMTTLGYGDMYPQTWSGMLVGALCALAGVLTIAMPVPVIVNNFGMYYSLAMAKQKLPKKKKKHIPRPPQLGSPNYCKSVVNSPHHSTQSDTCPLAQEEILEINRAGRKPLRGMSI
Experiment: Kv3.1 automated patch clamp (Qube) cellular electrophysiology assay
Type: cell-based
Text: In vitro, high-throughput cellular electrophysiology was employed to detect voltage-dependence of compounds in single concentration screening and IC50 determination for library and medicinal chemistry profiling compounds in 384 well plates.
HEK-293 cell lines stably expressing coding DNA for Kv3.1, 3.2, 3.3, and 3.4 were validated on an automated patch clamp (APC) platform, Qube from Sophion/Denmark. Cell cultures were maintained in DMEM cell growth media containing FBS and appropriate antibiotics at 37° C., 5% CO2 for a maximum of 20 passages. Intra- and extracellular (w. glucose) HEPES buffers containing various monovalent and divalent cations were adjusted to pH 7.2 and 7.4 respectively. Cells were harvested at 75% confluency and resuspended in extracellular buffer and added to wells. Negative pressure was applied to establish whole cell recording by APC.
Currents through activated channels were measured directly by APC by employing depolarization voltage steps. Baseline currents were established for the voltage-dependence protocols using a −80 mV holding potential and multiple test pulses at +10 mV or by 10 mV steps from −80 mV to +40 mV, respectively. Test compounds were added after baseline recordings followed by a 10 min incubation, and voltage-dependency protocol recordings. Data was corrected for baseline and leak currents (well based) and normalized for % potentiation (plate based). Two previously reported Kv3 positive modulators of varying potencies were used for run to run and plate to plate quality controls. A non-selective and potent positive modulator was used as a positive control. Percent potentiation was analyzed at −20 mV of the voltage-dependency protocol and voltage shift in channel activation was analyzed using the voltage step protocol from −80 mV to +40 mV. Selectivity was assessed against Kv3.2, Kv3.3, and Kv3.4 overexpressing cell lines using similar methods.

| Structure (SMILES) | EC50 [µM] | EC50 (HEK-293 cell line stably expressing Kv3.1, automated patch clamp, 10 min incubation, read-out: EC50 Kv3.1) [µM] |
| --- | --- | --- |
| Cc1ccc(Oc2ccc(-n3c(=O)[nH]c4cccnc43)cn2)cc1F [Example 35, 3-[6-(3-fluoro-4-methyl-phenoxy)-3-pyridyl]-1H-imidazo[4,5-b]pyridin-2-one] | 3.6 | – |
| Cc1ccc(Oc2ccc(-n3c(=O)[nH]c4cccnc43)cn2)c(F)c1 [Example 36, 3-[6-(2-fluoro-4-methyl-phenoxy)-3-pyridyl]-1H-imidazo[4,5-b]pyridin-2-one] | 4.3 | – |
| Cc1cc(C#N)ccc1Oc1ccc(-n2c(=O)[nH]c3cccnc32)cn1 [Example 37, 3-methyl-4-[[5-(2-oxo-1H-imidazo[4,5-b]pyridin-3-yl)-2-pyridyl]oxy]benzonitrile] | 6 | – |
| Cc1cc(C#N)cc(C)c1Oc1ccc(-n2c(=O)[nH]c3cccnc32)cn1 [Example 38, 3,5-dimethyl-4-[[5-(2-oxo-1H-imidazo[4,5-b]pyridin-3-yl)-2-pyridyl]oxy]benzonitrile] | 5.2 | – |
| COc1cc(C)ccc1Oc1ccc(-n2c(=O)[nH]c3cccnc32)cn1 [Example 39, 3-[6-(2-methoxy-4-methyl-phenoxy)-3-pyridyl]-1H-imidazo[4,5-b]pyridin-2-one] | 5 | – |
| N#Cc1ccc(Oc2ccc(-n3c(=O)[nH]c4cccnc43)cn2)c(C(F)(F)F)c1 [Example 40, 4-[[5-(2-oxo-1H-imidazo[4,5-b]pyridin-3-yl)-2-pyridyl]oxy]-3-(trifluoromethyl)benzonitrile] | 6.6 | – |
| COc1cc(Oc2ccc(-n3c(=O)[nH]c4cccnc43)cn2)cnc1C [Example 41, 3-[6-[(5-methoxy-6-methyl-3-pyridyl)oxy]-3-pyridyl]-1H-imidazo[4,5-b]pyridin-2-one] | 16.4 | – |
| Cc1ccc(Oc2ccc(-n3c(=O)[nH]c4cnccc43)cn2)cc1Cl [Example 42, 1-[6-(3-chloro-4-methyl-phenoxy)-3-pyridyl]-3H-imidazo[4,5-c]pyridin-2-one] | 10 | – |
| COc1cc(Oc2ccc(-n3c(=O)[nH]c4cncnc43)cn2)ccc1C [Example 43, 9-[6-(3-methoxy-4-methyl-phenoxy)-3-pyridyl]-7H-purin-8-one] | 7.4 | – |
| COc1cc(Oc2ncc(-n3c(=O)[nH]c4cnccc43)cc2F)ccc1C [Example 44, 1-[5-fluoro-6-(3-methoxy-4-methyl-phenoxy)-3-pyridyl]-3H-imidazo[4,5-c]pyridin-2-one] | 2.9 | – |
| COc1cc(Oc2ncc(-n3c(=O)[nH]c4cnccc43)cc2C)ccc1C [Example 45, 1-[5-methyl-6-(3-methoxy-4-methyl-phenoxy)-3-pyridyl]-3H-imidazo[4,5-c]pyridin-2-one] | 3.1 | – |
| COc1cc(Oc2ncc(-n3c(=O)[nH]c4cccnc43)cc2C)ccc1C [Example 46, 3-[6-(3-methoxy-4-methyl-phenoxy)-5-methyl-3-pyridyl]-1H-imidazo[4,5-b]pyridin-2-one] | 4 | – |
| Cc1ccc(Oc2ccc(-n3c(=O)[nH]c4cnccc43)cn2)cc1OC(F)(F)F [Example 47, 1-[6-[4-methyl-3-(trifluoromethoxy)phenoxy]-3-pyridyl]-3H-imidazo[4,5-c]pyridin-2-one] | – | 2.4 |
| COc1cc(Oc2ccc(-n3c(=O)[nH]c4nccnc43)cn2)ccc1C [Example 48, 3-[6-(3-methoxy-4-methyl-phenoxy)-3-pyridyl]-1H-imidazo[4,5-b]pyrazin-2-one] | 3.9 | – |
| CCc1cc(Oc2ccc(-n3c(=O)[nH]c4cccnc43)cn2)ccc1C#N [Example 49, 2-ethyl-4-[[5-(2-oxo-1H-imidazo[4,5-b]pyridin-3-yl)-2-pyridyl]oxy]benzonitrile] | 4.1 | – |
| Cc1ccc(Oc2ccc(-n3c(=O)[nH]c4cncnc43)cn2)cc1Cl [Example 50, 9-[6-(3-chloro-4-methyl-phenoxy)-3-pyridyl]-7H-purin-8-one] | 12.2 | – |
| CC(C)(C)c1cc(C#N)ccc1Oc1ccc(-n2c(=O)[nH]c3cccnc32)cc1F [Example 51, 3-tert-butyl-4-[2-fluoro-4-(2-oxo-1H-imidazo[4,5-b]pyridin-3-yl)phenoxy]benzonitrile] | 12.7 | – |
| CC(C)c1cc(C#N)ccc1O[C@H]1C[C@H](n2c(=O)[nH]c3cccnc32)C1 [Example 52, 3-isopropyl-4-[3-(2-oxo-1H-imidazo[4,5-b]pyridin-3-yl)cyclobutoxy]benzonitrile] | 17.4 | – |
| COc1cc(O[C@H]2C[C@H](n3c(=O)[nH]c4cnccc43)C2)ccc1C [Example 53, 1-[3-(3-methoxy-4-methyl-phenoxy)cyclobutyl]-3H-imidazo[4,5-c]pyridin-2-one] | 3.6 | – |
